Experimental data published in patent publication US11878975B2, “Substituted indole compounds useful as TLR inhibitors” (BRISTOL-MYERS SQUIBB COMPANY, priority 2017, dated 2024).

How the values were obtained:
Type in all cases: cell-based
[1] = biological target: T1, human TLR7 (Homo sapiens, UniProt Q9NYK1); assay: TLR7 inhibition reporter assay (HEK-Blue cells, SEAP reporter, gardiquimod stimulation); conditions: HEK-Blue cells overexpressing human TLR7, SEAP reporter, gardiquimod 7.5 μM
T1 construct: host or cells: HEK-Blue cells
T1 sequence (Q9NYK1 27-1049): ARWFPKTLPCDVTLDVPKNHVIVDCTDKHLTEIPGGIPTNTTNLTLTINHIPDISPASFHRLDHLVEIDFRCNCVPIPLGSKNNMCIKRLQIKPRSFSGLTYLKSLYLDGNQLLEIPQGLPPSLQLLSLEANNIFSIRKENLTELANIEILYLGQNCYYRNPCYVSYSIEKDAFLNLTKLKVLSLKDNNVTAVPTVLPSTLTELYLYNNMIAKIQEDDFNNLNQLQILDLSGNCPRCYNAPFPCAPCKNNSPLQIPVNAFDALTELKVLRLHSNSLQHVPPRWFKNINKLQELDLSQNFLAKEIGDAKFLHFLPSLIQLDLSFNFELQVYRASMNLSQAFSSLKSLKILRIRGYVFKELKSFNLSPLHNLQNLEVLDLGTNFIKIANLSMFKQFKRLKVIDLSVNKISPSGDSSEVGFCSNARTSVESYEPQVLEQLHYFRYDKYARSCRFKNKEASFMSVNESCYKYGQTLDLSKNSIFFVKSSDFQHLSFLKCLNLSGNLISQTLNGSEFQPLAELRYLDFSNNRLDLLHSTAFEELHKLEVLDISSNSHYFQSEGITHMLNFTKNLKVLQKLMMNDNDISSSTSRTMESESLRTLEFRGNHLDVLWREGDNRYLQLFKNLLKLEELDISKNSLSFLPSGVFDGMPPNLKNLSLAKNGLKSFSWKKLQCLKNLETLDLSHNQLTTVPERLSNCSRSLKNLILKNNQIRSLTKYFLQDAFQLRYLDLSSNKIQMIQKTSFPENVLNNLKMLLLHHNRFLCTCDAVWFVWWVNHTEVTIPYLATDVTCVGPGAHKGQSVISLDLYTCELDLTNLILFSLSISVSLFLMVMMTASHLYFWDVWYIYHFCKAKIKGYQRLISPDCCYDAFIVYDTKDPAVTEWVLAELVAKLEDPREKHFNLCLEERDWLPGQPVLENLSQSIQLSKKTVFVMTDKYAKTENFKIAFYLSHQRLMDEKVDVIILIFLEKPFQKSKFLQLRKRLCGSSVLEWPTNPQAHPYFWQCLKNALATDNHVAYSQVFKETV
In short: (§1)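 Percent inhibition is derived from SEAP signal, scaled between agonist-plus-DMSO wells and wells given a known inhibitor. Test compounds (0.05 nM–50 μM) are pre-incubated 30 min at room temperature before agonist addition (TLR7: 7.5 μM gardiquimod; TLR8: 15.9 μM R848; TLR9: 5 nM ODN2006) and 22 h culture at 37 °C.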

[2] = biological target: T2, human TLR9 (Homo sapiens, UniProt Q9NR96); assay: TLR9 inhibition reporter assay (HEK-Blue cells, SEAP reporter, ODN2006 stimulation); conditions: HEK-Blue cells overexpressing human TLR9, SEAP reporter, ODN2006 5 nM
T2 construct: host or cells: HEK-Blue cells
T2 sequence (Q9NR96 26-1032): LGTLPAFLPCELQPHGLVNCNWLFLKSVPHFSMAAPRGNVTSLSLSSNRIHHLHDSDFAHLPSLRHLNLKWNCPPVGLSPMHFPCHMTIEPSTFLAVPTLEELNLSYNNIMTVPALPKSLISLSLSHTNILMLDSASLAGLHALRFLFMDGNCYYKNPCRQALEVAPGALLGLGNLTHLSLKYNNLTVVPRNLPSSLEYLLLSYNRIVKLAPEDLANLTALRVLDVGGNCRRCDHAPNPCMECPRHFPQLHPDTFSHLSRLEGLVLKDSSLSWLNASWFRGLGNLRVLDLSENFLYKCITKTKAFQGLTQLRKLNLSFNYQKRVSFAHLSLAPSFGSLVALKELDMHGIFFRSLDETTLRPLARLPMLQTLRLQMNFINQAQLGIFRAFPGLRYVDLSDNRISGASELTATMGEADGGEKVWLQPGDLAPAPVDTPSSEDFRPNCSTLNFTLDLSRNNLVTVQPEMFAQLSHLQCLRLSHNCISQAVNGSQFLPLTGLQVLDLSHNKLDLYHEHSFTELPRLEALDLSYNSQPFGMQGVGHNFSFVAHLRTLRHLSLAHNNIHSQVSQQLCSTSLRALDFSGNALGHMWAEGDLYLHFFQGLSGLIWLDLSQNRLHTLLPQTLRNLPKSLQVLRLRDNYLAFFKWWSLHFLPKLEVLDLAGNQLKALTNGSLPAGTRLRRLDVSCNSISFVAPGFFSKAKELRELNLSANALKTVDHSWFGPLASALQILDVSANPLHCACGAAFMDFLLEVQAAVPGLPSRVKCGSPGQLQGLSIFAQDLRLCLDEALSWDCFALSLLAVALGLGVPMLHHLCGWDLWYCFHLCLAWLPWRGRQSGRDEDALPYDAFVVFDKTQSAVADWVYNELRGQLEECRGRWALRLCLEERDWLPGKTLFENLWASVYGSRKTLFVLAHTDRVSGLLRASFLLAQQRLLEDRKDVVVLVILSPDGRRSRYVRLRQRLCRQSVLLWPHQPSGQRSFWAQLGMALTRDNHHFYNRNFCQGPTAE
In short: as §1

[3] = biological target: T3, human TLR8 (Homo sapiens, UniProt Q9NR97); assay: TLR8 inhibition reporter assay (HEK-Blue cells, SEAP reporter, R848 stimulation); conditions: HEK-Blue cells overexpressing human TLR8, SEAP reporter, R848 15.9 μM
T3 construct: host or cells: HEK-Blue cells
T3 sequence (Q9NR97 27-1041): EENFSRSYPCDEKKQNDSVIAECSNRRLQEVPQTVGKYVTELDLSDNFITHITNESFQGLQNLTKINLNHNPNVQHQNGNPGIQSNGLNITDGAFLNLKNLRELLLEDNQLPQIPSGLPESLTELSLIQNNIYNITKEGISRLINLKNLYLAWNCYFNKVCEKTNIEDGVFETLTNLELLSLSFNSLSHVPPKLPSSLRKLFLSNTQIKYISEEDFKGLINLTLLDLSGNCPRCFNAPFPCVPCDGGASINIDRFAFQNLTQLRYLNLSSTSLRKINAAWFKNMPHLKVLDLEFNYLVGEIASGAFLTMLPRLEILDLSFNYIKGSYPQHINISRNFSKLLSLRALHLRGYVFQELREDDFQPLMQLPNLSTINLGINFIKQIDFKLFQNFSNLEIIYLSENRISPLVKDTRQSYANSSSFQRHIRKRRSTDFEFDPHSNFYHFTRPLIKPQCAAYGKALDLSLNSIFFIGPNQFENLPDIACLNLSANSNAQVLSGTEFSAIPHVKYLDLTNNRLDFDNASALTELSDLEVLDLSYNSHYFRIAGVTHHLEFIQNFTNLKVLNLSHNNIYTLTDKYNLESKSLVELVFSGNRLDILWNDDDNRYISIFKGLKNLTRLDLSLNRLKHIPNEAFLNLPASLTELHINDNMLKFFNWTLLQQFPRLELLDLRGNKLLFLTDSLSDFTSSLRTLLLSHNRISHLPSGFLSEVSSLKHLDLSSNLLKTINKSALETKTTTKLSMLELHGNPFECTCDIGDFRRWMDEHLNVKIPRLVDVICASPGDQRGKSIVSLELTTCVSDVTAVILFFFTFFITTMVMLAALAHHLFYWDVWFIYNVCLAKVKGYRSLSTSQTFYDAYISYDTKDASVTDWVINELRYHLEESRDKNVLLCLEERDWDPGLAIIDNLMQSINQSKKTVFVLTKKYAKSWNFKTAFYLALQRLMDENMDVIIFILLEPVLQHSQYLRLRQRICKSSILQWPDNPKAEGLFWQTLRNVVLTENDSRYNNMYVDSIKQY
In short: as §1

Row | SMILES | IC50 [1] | IC50 [2] | IC50 [3]
1 | Cc1c(-c2[nH]c3ccc(CC4CN(C(=O)CN(C)C)C4)cc3c2C(C)C)cn(C)c(=O)c1C [Example 415] | 0.04 µM | 5.02 µM | 0.038 µM
2 | Cc1cc(-c2[nH]c3ccc([C@@H]4C[C@H]4C(=O)NC4CC5CCN4CC5)cc3c2C(C)C)ccn1 (stereo partly drawn) [Example 460] | 0.051 µM | 0.179 µM | 0.031 µM
3 | Cc1cc(-c2[nH]c3ccc(C4CCC(N(C)C)CC4)cc3c2C(C)C)cc(C)n1 (single isomer, unassigned) [Example 53] | 0.00055 µM | 0.6 µM | 0.0029 µM
4 | Cc1cc(-c2[nH]c3ccc(C4CCC(C(=O)N5CCN(C)CC5)CC4)cc3c2C(C)C)cn2ncnc12 (single isomer, unassigned) [Example 156] | 0.00082 µM | 3.64 µM | 0.0067 µM
5 | Cc1cc(-c2[nH]c3ccc(C4CCC(N(C)C(=O)CN(C)C)CC4)cc3c2C(C)C)cn2ncnc12 (stereo not drawn) [Example 149] | 0.00043 µM | 2.3 µM | 0.0046 µM
6 | COc1cc(-c2[nH]c3ccc(CCC4CN(CC(C)(C)O)C4)cc3c2C(C)C)cn2ncnc12 [Example 441] | 0.002 µM | 2.57 µM | 0.0038 µM
7 | Cc1c(-c2[nH]c3ccc(C4CCC(N5CC(F)(F)C5)CC4)cc3c2C(C)C)cn2ncnc2c1C (stereo not drawn) [Example 24] | 0.007 µM | 24.9 µM | 0.021 µM
8 | Cc1cc(-c2[nH]c3ccc(C4CN(CC(C)(C)O)CCO4)cc3c2C(C)C)cc(C)n1 (stereo not drawn) [Example 357] | 0.036 µM | 1.97 µM | 0.0054 µM
9 | Cc1c(-c2[nH]c3ccc(C4CN(CC(=O)N(C)C)C4)cc3c2C(C)C)cn(C)c(=O)c1C [Example 489] | 0.128 µM | 14.9 µM | 0.02 µM
10 | Cc1cc(-c2[nH]c3ccc([C@H]4C[C@H]4C(=O)NC4CCC5CNCC54)cc3c2C(C)C)ccn1 (stereo partly drawn) [Example 457] | 0.189 µM | 0.646 µM | 0.05 µM
11 | Cc1cc(-c2[nH]c3ccc([C@@H]4C[C@H]4C(=O)NC4CCN(C(C)C)CC4)cc3c2C(C)C)ccn1 [Example 458] | 0.057 µM | 2.27 µM | 0.021 µM
12 | Cc1cc(-c2[nH]c3ccc(C4CCC(C(=O)N5CCOCC5)CC4)cc3c2C(C)C)cn2ncnc12 (stereo not drawn) [Example 161] | 0.003 µM | 4.8 µM | 0.059 µM
13 | Cc1c(-c2[nH]c3ccc(C4CCCN(C(=O)CN(C)C)C4)cc3c2C(C)C)cn2ncnc2c1C (stereo not drawn) [Example 193] | 0.001 µM | 6.42 µM | 0.0029 µM
14 | COC1CCC(c2ccc3[nH]c(-c4cc(C)c5ncnn5c4)c(C(C)C)c3c2)CC1 (stereo not drawn) [Example 168, 6-(3-isopropyl-5-(4-methoxycyclohexyl)-1H-indol-2-yl)-8-methyl-[1,2,4]triazolo[1,5-a]pyridine] | 0.015 µM | 34.4 µM | 0.265 µM
15 | Cc1cc(-c2[nH]c3ccc(CC4CCCN4CC(=O)N(C)C)cc3c2C(C)C)cn2ncnc12 (stereo not drawn) [Example 426] | 0.002 µM | 11.2 µM | 0.013 µM
16 | COc1cc(-c2[nH]c3ccc(C4CCC(NCC(=O)NC5COC5)CC4)cc3c2C(C)C)cn2ncnc12 (stereo not drawn) [Example 164] | 0.001 µM | 1.92 µM | 0.0071 µM
17 | Cc1c(-c2[nH]c3ccc(C4CN(C5COC5)C4)cc3c2C(C)C)cn(C)c(=O)c1C [Example 485] | 0.046 µM | 48 µM | 0.027 µM
18 | CNC1CCC(c2ccc3[nH]c(-c4cc(OC)c5ncnn5c4)c(C(C)C)c3c2)CC1 (single isomer, unassigned) [Example 145, 4-(3-isopropyl-2-(8-methoxy-[1,2,4]triazolo[1,5-a]pyridin-6-yl)-1H-indol-5-yl)-N-methylcyclohexanamine] | 0.00022 µM | 0.569 µM | 0.00073 µM
19 | Cc1c(-c2[nH]c3ccc(C4CN(CC(=O)N(C)C)C(C)(C)CO4)cc3c2C(C)C)cn2ncnc2c1C (stereo not drawn) [Example 386] | 0.034 µM | > 50 µM | 0.049 µM
20 | COc1cc(-c2[nH]c3ccc(C4CCC(NC(=O)CN(C)C5CC5)CC4)cc3c2C(C)C)cn2ncnc12 (stereo not drawn) [Example 143] | 0.002 µM | 27.7 µM | 0.008 µM
21 | Cc1c(-c2[nH]c3ccc(C4CNCCO4)cc3c2C(C)C)cn2ncnc2c1C (stereo not drawn) [Example 286] | 0.001 µM | 5.39 µM | 0.00073 µM
22 | COc1cc(-c2[nH]c3ccc(C4CCCN(C5CCOCC5)C4)cc3c2C(C)C)cn2ncnc12 (stereo not drawn) [Example 244] | 0.004 µM | 1.19 µM | 0.00069 µM
23 | Cc1c(-c2[nH]c3ccc(C4CC5CN(CC(N)=O)CC5C4)cc3c2C(C)C)cn2ncnc2c1C (stereo not drawn) [Example 511] | 0.00094 µM | 12.3 µM | 0.0061 µM
24 | CCN(C)C1CCC(c2ccc3[nH]c(-c4cc(C)c5ncnn5c4)c(C(C)C)c3c2)CC1 (stereo not drawn) [Example 63] | 0.00081 µM | 5.92 µM | 0.0059 µM
